From patent US11419852B2, “Beta-lactam compounds or salts thereof for use in long-acting prevention or treatment of a glucose metabolism disorder” (GLYCOLYSIS BIOMED CO., LTD., priority 2019, dated 2022)
Marks after values point to notes of the source that are not given here.

Assays:
Type in all cases: in vivo
db/db mice [1] = test: Plasma biochemical parameters (AST, ALT, BUN, Cr, HbA1c); details: Ex 3: db/db mice, daily dosing 3 weeks at doses of Table 10; week 9
Method: Inflammatory markers such as serum aspartate aminotransferase (AST), alanine aminotransferase (ALT), blood urea nitrogen (BUN), creatinine (Cr), and hemoglobin Alc (HbAlc) were measured using a BMC-Hitachi 717 chemistry auto analyzer.

[2] = Body weight of mice recorded weekly
Method: Four to five weeks old db/db mice (BKS.Cg-Dock7^m+/+Lepr^db/JNarl) and m/m mice (BKS.Cg-Dock7^m+/Dock7^m+) were obtained from National Laboratory Animal Center ([…], Taiwan). […] PMI Nutrition International, Brentwood, Mo.) and water ad libitum. […] The mouse body weight (bw) and the amounts of water and food intake were recorded weekly for the entire study period.

db/db mice [3] = test: Oral glucose tolerance test (OGTT); parameters: OGTT AUC: unit not given here
Method: Four to five weeks old db/db mice (BKS.Cg-Dock7^m+/+Lepr^db/JNarl) and m/m mice (BKS.Cg-Dock7^m+/Dock7^m+) were obtained from National Laboratory Animal Center ([…], Taiwan). […] PMI Nutrition International, Brentwood, Mo.) and water ad libitum. […] Blood was sampled from the tail vein, and FPG levels were measured and recorded as the basic blood glucose levels. […] The total area under the curve (AUC) in OGTT was plotted and calculated by the Area Under Coordinates Program (StatsToDo Server, Department of Obstetrics and Gynecology, Chinese University of Hong Kong).

db/db mice [4] = test: Histopathological assessment (H&E stain); details: Ex 2, metformin-treated vs ertapenem-treated mice
Text: For histopathological assessment, all mice were sacrificed by 95% CO2 asphyxiation at the end of the study period. Their brain, liver, kidney, pancreas, and epididymal fat pads were removed, fixed in 10% phosphate-buffered formalin, and embedded in paraffin. Tissues embedded in paraffin were cut into […] sections that were then stained with hematoxylin-eosin (i.e., H&E stain).

[5] = Ex 2 G3 db/db, Met oral 0.3 mg/g bw/day, dosing 6 weeks, week 6
[6] = Ex 2 G3 db/db, Met oral 0.3 mg/g bw/day, dosing 6 weeks, week 12
[7] = Ex 3: db/db mice, daily dosing 3 weeks at doses of Table 10, Week 6 (stopped for 3 weeks)
[8] = Ex 3: db/db mice, daily dosing 3 weeks at doses of Table 10, Week 9 (stopped for 6 weeks)

## CN(C)C(=N)N=C(N)N [Met, metformin]
db/db mice [1]
  ALT: 116 ± 12^d U/L
  AST: 194 ± 17^e U/L
  BUN: 37 ± 1^b mg/dL
  Creatinine: 0.517 ± 0.01^e mg/dL
  HbA1c: 6.7 ± 0.2^e %
[2]; Ex 2 G3 db/db, Met oral 0.3 mg/g bw/day, dosing 6 weeks, Baseline
  Body weight: 31.17 ± 0.47^b
[2]; Ex 2 G3 db/db, Met oral 0.3 mg/g bw/day, dosing 6 weeks, week 1
  Body weight: 30.81 ± 0.48^b
[2]; Ex 2 G3 db/db, Met oral 0.3 mg/g bw/day, dosing 6 weeks, week 2
  Body weight: 32.61 ± 0.46^bc
[2]; Ex 2 G3 db/db, Met oral 0.3 mg/g bw/day, dosing 6 weeks, week 3
  Body weight: 35.97 ± 0.57^cd
[2]; Ex 2 G3 db/db, Met oral 0.3 mg/g bw/day, dosing 6 weeks, week 4
  Body weight: 37.47 ± 0.79^c
[2]; Ex 2 G3 db/db, Met oral 0.3 mg/g bw/day, dosing 6 weeks, week 5
  Body weight: 40.15 ± 0.93^c
[2]; [5]
  Body weight: 41.82 ± 0.98^d
[2]; Ex 2 G3 db/db, Met oral 0.3 mg/g bw/day, dosing 6 weeks, week 7
  Body weight: 42.38 ± 1.25^d
[2]; Ex 2 G3 db/db, Met oral 0.3 mg/g bw/day, dosing 6 weeks, week 8
  Body weight: 43.04 ± 1.54^d
[2]; Ex 2 G3 db/db, Met oral 0.3 mg/g bw/day, dosing 6 weeks, week 9
  Body weight: 43.68 ± 1.58^d
[2]; Ex 2 G3 db/db, Met oral 0.3 mg/g bw/day, dosing 6 weeks, week 10
  Body weight: 43.40 ± 1.4^b
[2]; Ex 2 G3 db/db, Met oral 0.3 mg/g bw/day, dosing 6 weeks, week 11
  Body weight: 44.15 ± 1.37^b
[2]; [6]
  Body weight: 45.24 ± 1.37^b
[2]; Ex 2 G3 db/db, Met oral 0.3 mg/g bw/day, dosing 6 weeks, week 13
  Body weight: 44.68 ± 1.6^b
[2]; Ex 3: db/db mice, daily dosing 3 weeks at doses of Table 10, Baseline
  Body weight: 28.9 ± 1^b
[2]; Ex 3: db/db mice, daily dosing 3 weeks at doses of Table 10, Final
  Body weight: 37.0 ± 1^c
[2]; Ex 3: db/db mice, daily dosing 3 weeks at doses of Table 10, Week 3
  Body weight: 35.9 ± 1^d
[2]; [7]
  Body weight: 39.5 ± 1^c
[2]; [8]
  Body weight: 39.7 ± 1^c
db/db mice [3]; Ex 2, most time points (ertapenem: weeks 6 and 12)
  Oral glucose tolerance (OGT) of db/db mice: no significant changes
db/db mice [3]; Ex 2 G3 db/db, Met oral 0.3 mg/g bw/day, dosing 6 weeks, Week 6, 0 min
  Level of OGTT (blood glucose): 222 ± 30 mg/dL
db/db mice [3]; Ex 2 G3 db/db, Met oral 0.3 mg/g bw/day, dosing 6 weeks, Week 6, 15 min
  Level of OGTT (blood glucose): 828 ± 33^bc
db/db mice [3]; Ex 2 G3 db/db, Met oral 0.3 mg/g bw/day, dosing 6 weeks, Week 6, 30 min
  Level of OGTT (blood glucose): 832 ± 42^c
db/db mice [3]; Ex 2 G3 db/db, Met oral 0.3 mg/g bw/day, dosing 6 weeks, Week 6, 60 min
  Level of OGTT (blood glucose): 710 ± 86^cd
db/db mice [3]; Ex 2 G3 db/db, Met oral 0.3 mg/g bw/day, dosing 6 weeks, Week 6, 120 min
  Level of OGTT (blood glucose): 417 ± 42^cd
db/db mice [3]; Ex 2 G3 db/db, Met oral 0.3 mg/g bw/day, dosing 6 weeks, Week 12, 0 min
  Level of OGTT (blood glucose): 267 ± 43^cd
db/db mice [3]; Ex 2 G3 db/db, Met oral 0.3 mg/g bw/day, dosing 6 weeks, Week 12, 15 min
  Level of OGTT (blood glucose): 821 ± 47 mg/dL
db/db mice [3]; Ex 2 G3 db/db, Met oral 0.3 mg/g bw/day, dosing 6 weeks, Week 12, 30 min
  Level of OGTT (blood glucose): 839 ± 40^cd
db/db mice [3]; Ex 2 G3 db/db, Met oral 0.3 mg/g bw/day, dosing 6 weeks, Week 12, 60 min
  Level of OGTT (blood glucose): 741 ± 51^c
db/db mice [3]; Ex 2 G3 db/db, Met oral 0.3 mg/g bw/day, dosing 6 weeks, Week 12, 120 min
  Level of OGTT (blood glucose): 564 ± 70^c
db/db mice [3]; Ex 2 G3 db/db, Met oral 0.3 mg/g bw/day, dosing 6 weeks, Week 16, 0 min
  Level of OGTT (blood glucose): 215 ± 27 mg/dL
db/db mice [3]; Ex 2 G3 db/db, Met oral 0.3 mg/g bw/day, dosing 6 weeks, Week 16, 15 min
  Level of OGTT (blood glucose): 611 ± 24 mg/dL
db/db mice [3]; Ex 2 G3 db/db, Met oral 0.3 mg/g bw/day, dosing 6 weeks, Week 16, 30 min
  Level of OGTT (blood glucose): 703 ± 15 mg/dL
db/db mice [3]; Ex 2 G3 db/db, Met oral 0.3 mg/g bw/day, dosing 6 weeks, Week 16, 60 min
  Level of OGTT (blood glucose): 637 ± 27 mg/dL
db/db mice [3]; Ex 2 G3 db/db, Met oral 0.3 mg/g bw/day, dosing 6 weeks, Week 16, 120 min
  Level of OGTT (blood glucose): 444 ± 62^cd
db/db mice [3]; Ex 2 G3 db/db, Met oral 0.3 mg/g bw/day, dosing 6 weeks, Week 18, 0 min
  Level of OGTT (blood glucose): 346 ± 58 mg/dL
db/db mice [3]; Ex 2 G3 db/db, Met oral 0.3 mg/g bw/day, dosing 6 weeks, Week 18, 15 min
  Level of OGTT (blood glucose): 836 ± 58 mg/dL
db/db mice [3]; Ex 2 G3 db/db, Met oral 0.3 mg/g bw/day, dosing 6 weeks, Week 18, 30 min
  Level of OGTT (blood glucose): 885 ± 73 mg/dL
db/db mice [3]; Ex 2 G3 db/db, Met oral 0.3 mg/g bw/day, dosing 6 weeks, Week 18, 60 min
  Level of OGTT (blood glucose): 769 ± 55 mg/dL
db/db mice [3]; Ex 2 G3 db/db, Met oral 0.3 mg/g bw/day, dosing 6 weeks, Week 18, 120 min
  Level of OGTT (blood glucose): 589 ± 67^bc
db/db mice [3]; [5]
  OGTT AUC: 1288 ± 93^c
db/db mice [3]; [6]
  OGTT AUC: 1391 ± 94^cd
db/db mice [3]; Ex 2 G3 db/db, Met oral 0.3 mg/g bw/day, dosing 6 weeks, week 16
  OGTT AUC: 1143 ± 55^c
db/db mice [3]; Ex 2 G3 db/db, Met oral 0.3 mg/g bw/day, dosing 6 weeks, week 18
  OGTT AUC: 1456 ± 85^b
db/db mice [3]; [7]
  OGTT AUC: 1603 ± 46^c
db/db mice [3]; [8]
  OGTT AUC: 1707 ± 43^f
db/db mice [4]
  Kidney histological changes (tubular degeneration and necrosis, mineralization, hyaline cast): more apparent
